{
  "source": "patent US20260355168A1",
  "about": "“COMPOSITIONS AND METHODS FOR TREATING AND DETECTING CANCER” (CASE WESTERN RESERVE UNIVERSITY, priority 2022, published 2026)",
  "key": {"glioma cells": {"system": "glioma cells", "assay": "Glioma cell assays combined (scratch and sphere, several cell lines)", "assay_type": "cell-based, human", "details": "100 μM; multiple assays and cell lines", "procedure": "FIG. 2 illustrates a schematic of a functional screening approach. Seventy-four PTPμ wedge-targeted compounds and 2 blinded DMSO samples were received from Atomwise and screened at 100 μM in scratch wound healing assays using two glioma cell lines (LN229 and U87). Selected active and control compounds were taken into secondary assays (Gli36 scratch and LN229 and Gli36 sphere formation and growth assays). Inhibitors selected as being active in primary and secondary screens were tested for effects on the survival of LN229 and Sf9 cells, and selected glioma-cell inhibitors and activators were screened for effects on Sf9-PTPμ aggregation, a highly specific test for PTPμ function.\n(§1) Cells were seeded at a density of 2.7×10^4 cells per well into the internal wells of Incuyte1 Imagelock 96-well plates (Essen BioScience Inc., Ann Arbor, MI) and cultured overnight to form monolayers. Monolayers were wounded with an IncuCyte1 96-well Woundmaker Tool per the manufacturer's instructions. The outer wells were filled with PBS to buffer edge effects, and then the wounded monolayers were cultured in 100 μl of fresh media with compounds or DMSO (2×replicates at 100 μM or 1%, respectively) at 37 °C and 5% CO2. Images were captured every 4 hrs. using an Incucyte live cell imaging system equipped with the Scratch Wound Module. Scratch wound widths were calculated, per the manufacturer's instructions, at TO and at endpoint (typically T12 for LN229 and U87 cells and T8 for Gli36), which was taken as the last timepoint before wound closure. The cell migration distance was calculated from scratch widths [(T0Width−TendpointWidth)/2] and normalized to the average distance migrated by the DMSO controls. Values are presented as average percentages±standard errors of the means (s.e.m.). The majority of compounds were screened with an n of two, but the n for priority hits ranges from 2-6.\n(§2) Cells were seeded at a density of 7500 cells per well into the internal wells of 96-well plates coated with 0.75% (wt/vol) PVA as previously described. Compounds were added (2×replicates per treatment) at the indicated final concentrations, and control wells were treated with matching concentrations of DMSO. The external wells of the plates were filled with PBS to buffer against edge effects, and the cells were incubated at 37 °C and 5% CO2 for 7 days. A Leica CTR6500 microscope fitted with an automated stage was used to capture brightfield images on day 1 and day 7, and sphere footprint areas were measured using Image J (v1.52a http://imagej.nih.gov/ij) as previously described. To quantify the effects of the compounds on day 1, the footprint areas of the treated wells were normalized to the average area of the matched DMSO control wells. To quantify the effects of the compounds on sphere growth, the change in the sphere footprint areas was calculated ([…]) and then normalized to the average size change of the matched DMSO samples. All values are presented as average percentages±s.e.m."}, "U87 cells": {"system": "U87 cells", "assay": "U87 scratch wound healing assay", "assay_type": "cell-based, human", "details": "100 μM; in words", "text": "FIGS. 11(A-D) illustrate a histogram and images of the results of the U87 scratch wound assays. A. Histogram showing the effects of all soluble wedge pocket-targeting compounds on U87 scratch wound closure. Cell movement into the scratches was quantified from scratch wound widths at the start and end of the assay and normalized to the average movement of cells in the unblinded DMSO control samples. Data is presented as average percentages±s.e.m., and compound bar codes are shown on the x-axis. Most compounds were screened with an n of 2-4. Representative images of scratch wounds treated with DMSO (A) or two priority inhibitors (C and D) are shown.\nas §1"}, "LN229 cells [1]": {"system": "LN229 cells", "assay": "LN229 glioma sphere formation and growth assay", "assay_type": "cell-based, human", "details": "100 μM, in words", "procedure": "FIGS. 5(A-E) illustrate a histogram and images showing the results of the LN229 sphere formation and growth assays. Selected inhibitors, activators, and control compounds identified in LN229 and/or U87 scratch wound closure assays were retested at 100 μM in a secondary assay for glioma cell (LN229) sphere formation and growth. A. Histogram showing the effects of the indicated compounds on sphere formation. On day 1, sphere footprint areas were determined and normalized to the average footprint area of the unblinded vehicle-treated controls. On day 1, a larger footprint area indicates inhibition of aggregation. B. Histogram showing the effects of the indicated compounds on sphere growth. On day 7, the changes in sphere footprint areas were calculated and normalized to the average size change of the unblinded vehicle-treated controls. On day 7, a smaller value indicates reduced growth. […] Data is presented as percentages±s.e.m. of 2-4 replicates. Representative images of samples treated with DMSO (C) and two priority inhibitors (D and E) are shown. Relative day 1 footprint areas and day 7 growth measurements are indicated for each example.\nFIGS. 15(A-D) illustrate a histogram and images of titration of selected compounds on LN229 sphere formation and growth. LN229 cells were plated onto non-adherent surfaces and treated with the indicated compounds at 100, 50, and 25 μM. A. On day 1, sphere footprint areas were determined and normalized to the average footprint area of the unblinded vehicle-treated controls. On day 1, a larger foot-print area indicates inhibition of aggregation. B. On day 7, the changes in sphere footprint areas were calculated and normalized to the average size change of the unblinded vehicle-treated controls. On day 7, a smaller value indicates reduced growth. […] Data is presented as percentages±s.e.m. The initial test at 100 μM and the follow-up at that dose with titration is shown. Each bar is the average of 2 replicates. Representative day 1 (C) and day 7 (D) images of samples treated with two priority inhibitors are shown. Relative day 1 sphere footprint areas and day 7 growth for each example are indicated.\nas §2\nWe tested the effects of twenty-four compounds (11 flagged as inhibitory, 4 as stimulatory, and nine as inert in the initial scratch-wound screen, FIG. 2) on the ability of LN229 cells to mediate cell-cell adhesion and grow in 3D culture on non-adherent surfaces. To quantify sphere formation (FIG. 5A), the footprint areas of aggregates were measured on day 1 and normalized to that of the DMSO control. At this time point, a larger footprint size (>120%) indicates inhibition, i.e., the failure of cells to form a compact aggregate. To quantify sphere growth (FIG. 5B), we calculated the percent changes in sphere footprint areas between day 1 and day 7 and normalized them to that of the DMSO controls."}, "LN229 cells [2]": {"system": "LN229 cells", "assay": "LN229 scratch wound healing assay", "assay_type": "cell-based, human", "text": "FIGS. 3(A-D) illustrate a histogram and images of the LN229 scratch wound assays. A. Histogram showing the effects of all soluble wedge-targeted compounds on LN229 scratch wound closure. Cell movement into the scratches was quantified from scratch wound widths at the start and end of the assay and normalized to the average movement of cells in the unblinded DMSO control samples. Data is presented as average percentages±standard error of the means (s.e.m.), and compound bar codes are shown on the x-axis. The majority of compounds were screened with an n=2. Some priority compounds were screened with 3-6 replicates. Representative endpoint images of samples treated with DMSO (B) and two priority inhibitors (C and D) are shown. The relative migration distances for each example are indicated.\nas §1\nScratch assays measure the ability of cells to migrate into a wound and close it creating a monolayer."}, "PTPμ": {"biological_target": "PTPμ (Homo sapiens, UniProt P28827)", "sequence (P28827 21-1452)": "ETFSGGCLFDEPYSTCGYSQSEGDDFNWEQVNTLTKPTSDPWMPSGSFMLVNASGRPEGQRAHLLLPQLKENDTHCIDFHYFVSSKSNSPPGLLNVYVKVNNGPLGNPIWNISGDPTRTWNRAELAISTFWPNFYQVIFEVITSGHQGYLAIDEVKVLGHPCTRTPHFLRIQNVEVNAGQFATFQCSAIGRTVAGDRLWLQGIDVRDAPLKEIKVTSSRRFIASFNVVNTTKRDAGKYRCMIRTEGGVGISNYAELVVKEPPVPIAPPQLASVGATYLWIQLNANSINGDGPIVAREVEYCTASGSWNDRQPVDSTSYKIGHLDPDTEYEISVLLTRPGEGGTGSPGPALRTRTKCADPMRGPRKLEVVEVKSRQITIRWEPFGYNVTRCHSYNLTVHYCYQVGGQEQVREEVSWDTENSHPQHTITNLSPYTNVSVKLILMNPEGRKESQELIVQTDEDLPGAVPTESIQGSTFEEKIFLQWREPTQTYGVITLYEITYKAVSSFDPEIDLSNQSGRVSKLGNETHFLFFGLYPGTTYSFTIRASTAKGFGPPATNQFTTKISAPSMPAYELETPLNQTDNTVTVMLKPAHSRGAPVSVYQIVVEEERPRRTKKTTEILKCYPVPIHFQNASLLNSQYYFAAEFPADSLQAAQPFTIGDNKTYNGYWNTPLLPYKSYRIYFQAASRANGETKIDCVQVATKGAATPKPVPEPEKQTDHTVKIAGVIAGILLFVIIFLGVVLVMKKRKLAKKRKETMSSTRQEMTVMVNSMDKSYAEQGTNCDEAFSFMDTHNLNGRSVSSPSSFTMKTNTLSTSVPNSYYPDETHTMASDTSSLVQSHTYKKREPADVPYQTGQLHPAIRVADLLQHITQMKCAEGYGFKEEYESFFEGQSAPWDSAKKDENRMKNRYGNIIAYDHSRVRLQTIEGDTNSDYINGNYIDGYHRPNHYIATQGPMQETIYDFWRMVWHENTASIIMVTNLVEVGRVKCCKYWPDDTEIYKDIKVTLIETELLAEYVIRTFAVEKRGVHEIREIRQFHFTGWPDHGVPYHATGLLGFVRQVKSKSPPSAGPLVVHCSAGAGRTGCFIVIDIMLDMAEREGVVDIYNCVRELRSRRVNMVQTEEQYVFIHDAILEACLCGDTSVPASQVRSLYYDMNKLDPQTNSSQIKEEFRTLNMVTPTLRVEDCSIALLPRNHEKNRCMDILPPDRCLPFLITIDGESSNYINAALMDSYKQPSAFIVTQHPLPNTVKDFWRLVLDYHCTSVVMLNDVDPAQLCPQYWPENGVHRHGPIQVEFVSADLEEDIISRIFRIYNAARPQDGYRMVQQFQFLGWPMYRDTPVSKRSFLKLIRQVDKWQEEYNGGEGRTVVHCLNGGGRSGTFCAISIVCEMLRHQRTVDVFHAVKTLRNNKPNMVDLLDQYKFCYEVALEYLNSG", "assay": "PTPμ-dependent Sf9 aggregation assay", "assay_type": "cell-based", "details": "100 μM; 20 min pretreatment; in words"}, "Gli36 cells": {"system": "Gli36 cells", "assay": "Gli36 glioma sphere formation and growth assay", "assay_type": "cell-based, human", "procedure": "FIGS. 6(A-E) illustrate a histogram and images showing the results of the Gli36 sphere formation and growth assays. Selected inhibitors, activators, and control compounds identified in LN229 and/or U87 scratch wound closure assays were retested at 100 μM in a secondary assay for glioma cell (Gli36) sphere formation and growth. A. Histogram showing the effects of the indicated compounds on Day 1 sphere footprint areas. Footprint areas were measured and normalized to the average footprint area of the unblinded DMSO-treated controls. On day 1, a larger footprint area indicates inhibition of aggregation. B. Histogram showing the effects of the indicated compounds on sphere growth. Changes in sphere footprint areas were calculated and normalized to the average size change of the unblinded vehicle-treated controls. On day 7, a smaller value indicates reduced growth. […] Data is presented as percentages±s.e.m. of 2-4 replicates. Representative images of samples treated with DMSO (C) and two priority inhibitors (D and E) are shown. Relative day 1 footprint areas and day 7 growth measurements are indicated for each example.\nas §2"}},
  "note": "“Also recorded” adds a separate entry of the source.",
  "data": [
    {"compound": "COc1ccc(CC(NC(=O)C2CC(NC(=O)CSC)CCN2C(=O)CCC(=O)O)C(N)=O)cc1", "note": "(stereo not shown) [Compound 247685114]", "values": [
      {"measurement": "Effect on glioma cells, overall", "setting": "glioma cells", "value": "only weak, if any, activity in other glioma-cell assays"},
      {"measurement": "Effect on U87 cell migration (scratch wound closure)", "setting": "U87 cells", "value": "did not reach our strict cut-off for an activator; also recorded: weakly stimulatory in U87 and LN229 scratch assays"},
      {"measurement": "Effect on LN229 sphere formation", "setting": "LN229 cells [1]; day 1", "value": "did not affect LN229 sphere formation or growth"},
      {"measurement": "Effect on LN229 sphere growth", "setting": "LN229 cells [1]; day 7", "value": "did not affect LN229 sphere formation or growth"},
      {"measurement": "Effect on LN229 scratch wound closure / migration", "setting": "LN229 cells [2]; 100 μM, in words", "value": "moderately stimulated LN229; also recorded: weakly stimulatory in U87 and LN229 scratch assays"},
      {"measurement": "activity at 100 µM", "setting": "LN229 cells [2]; Homo sapiens, LN-229, normalized to DMSO controls, read-out: LN229 scratch wound closure relative to DMSO controls", "value": "~120", "unit": "%"},
      {"measurement": "Effect on PTPμ-dependent Sf9 aggregation / adhesion", "setting": "PTPμ", "value": "activate Sf9-PTPμ aggregation; also recorded: activate PTPμ-dependent adhesion; also recorded: considerable increase in aggregate numbers; also recorded: activator of PTPμ-dependent adhesion; also recorded: able to activate PTPμ-mediated aggregation"},
      {"measurement": "Effect on Gli36 sphere formation", "setting": "Gli36 cells; 100 μM, day 1, in words", "value": "affected Gli36 spheres; also recorded: accelerate Gli36 sphere condensation and growth; also recorded: weakly stimulatory in U87 and LN229 scratch assays and Gli36 sphere formation and growth assays; also recorded: stimulate Gli36 sphere formation and growth"},
      {"measurement": "Effect on Gli36 sphere growth", "setting": "Gli36 cells; 100 μM, day 7, in words", "value": "grew marginally faster than controls; also recorded: modest activator of Gli36 sphere growth; also recorded: weakly stimulatory in U87 and LN229 scratch assays and Gli36 sphere formation and growth assays; also recorded: stimulate Gli36 sphere formation and growth"},
      {"measurement": "activity at 100 µM", "setting": "Gli36 cells; Homo sapiens, GLI36, 24 h, day 1, of the control area, read-out: Average day 1 sphere footprint area, Gli36", "value": 68, "unit": "%"}
    ]}
  ]
}
